Data from patent US20090270381A1, “Non-steroidal progesterone receptor modulators” (priority 2007, published 2009).
pIC50: −log10 of the molar value.

The compounds below were run against T1, PR-B (Homo sapiens, UniProt P06401) (assay: Transactivation test on antagonistic activity on PR-B). Settings: not given.
T1 construct: expressed in transfected cells
T1 sequence (P06401 1-933): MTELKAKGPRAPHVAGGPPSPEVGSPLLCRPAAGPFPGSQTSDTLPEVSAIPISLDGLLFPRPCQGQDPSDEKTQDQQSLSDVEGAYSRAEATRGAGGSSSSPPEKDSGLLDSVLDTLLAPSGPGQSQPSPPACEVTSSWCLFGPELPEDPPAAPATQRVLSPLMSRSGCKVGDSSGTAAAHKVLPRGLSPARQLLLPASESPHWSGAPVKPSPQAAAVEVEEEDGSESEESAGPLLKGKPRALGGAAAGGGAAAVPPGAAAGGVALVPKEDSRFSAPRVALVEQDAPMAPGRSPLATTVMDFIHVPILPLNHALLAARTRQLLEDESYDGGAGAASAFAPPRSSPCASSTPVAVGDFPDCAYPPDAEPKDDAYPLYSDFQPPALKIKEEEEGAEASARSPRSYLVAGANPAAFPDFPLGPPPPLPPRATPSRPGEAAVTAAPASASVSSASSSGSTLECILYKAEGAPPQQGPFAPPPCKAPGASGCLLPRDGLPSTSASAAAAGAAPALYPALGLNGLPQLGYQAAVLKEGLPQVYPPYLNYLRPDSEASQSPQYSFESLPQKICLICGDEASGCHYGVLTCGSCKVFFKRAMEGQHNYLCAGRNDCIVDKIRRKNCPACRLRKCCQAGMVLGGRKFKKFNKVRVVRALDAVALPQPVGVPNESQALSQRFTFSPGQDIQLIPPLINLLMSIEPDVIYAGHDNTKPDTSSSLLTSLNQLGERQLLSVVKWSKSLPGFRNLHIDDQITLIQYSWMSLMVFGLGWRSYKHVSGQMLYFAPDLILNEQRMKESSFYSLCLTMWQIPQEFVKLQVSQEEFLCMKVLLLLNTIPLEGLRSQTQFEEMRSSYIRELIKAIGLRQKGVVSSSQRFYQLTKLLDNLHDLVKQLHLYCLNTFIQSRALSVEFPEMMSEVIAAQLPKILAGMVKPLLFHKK
Assay type: cell-based
Method: The transactivation assay is carried out as described in WO 02/054064.
With N#Cc1ccc(NC(=O)C(O)(Cc2ccccc2)C2CCCCC2)cc1Cl (racemic) [Example 3, rac-N-(3-Chloro-4-cyanophenyl)-2-hydroxy-2-cyclohexyl-3-phenylpropanamide] the pIC50 was 8.25.
Work on N#Cc1ccc(NC(=O)C(O)(C#Cc2ccc(O)cc2)C2CCCCC2)cc1Cl (racemic) [Example 10, rac-N-(3-Chloro-4-cyanophenyl)-2-hydroxy-2-cyclohexyl-2-(4-hydroxyphenyl)-ethynylacetamide] yielded a pIC50 of 8.15.

Same assay, conditions: antagonistic activity on PR-B; read-out: IC50
N#Cc1ccc(NC(=O)C(O)(Cc2ccccc2)C2CCCC2)cc1Cl (racemic) [Example 32, rac-N-(3-Chloro-4-cyanophenyl)-2-cyclopentyl-2-hydroxy-3-phenylpropionamide] gave a pIC50 of 7.57.
For COc1ccc(CC(O)(C(=O)Nc2ccc(C#N)c(Cl)c2)C2CCCCC2)cc1 (racemic) [Example 16, rac-N-(3-Chloro-4-cyanophenyl)-2-cyclohexyl-2-hydroxy-3-(4-methoxyphenyl)-propionamide], the pIC50 was 7.77.
“rac-N-(3-Chloro-4-cyanophenyl)-2-hydroxy-2-cyclohexyl-2-(4-fluorophenyl)-ethynylacetamide [Example 6]” was tested, and the pIC50 was 8.30.
With “rac-N-(3-Chloro-4-cyanophenyl)-2-hydroxy-2-cyclohexyl-2-(4-trifluoromethyl-phenyl)ethynylacetamide [Example 5]” the pIC50 was 8.10.
N#Cc1ccc(NC(=O)C(O)(Cc2ccccc2)C2CCCC2)cc1C(F)(F)F (racemic) [Example 39, rac-N-(4-Cyano-3-trifluoromethylphenyl)-2-cyclopentyl-2-hydroxy-3-phenyl-propionamide] was tested, and the pIC50 was 7.77.
